Patent US7125900B2, “Inhibitors of 11-β-hydroxy steroid dehydrogenase type 1” (Biovitrum AB, priority 2000, dated 2006)

Legend:
human 11-β-HSD1 enzyme = target: T1, human 11-β-HSD1 enzyme (Homo sapiens, UniProt P28845); test: human 11-β-HSD1 enzyme assay (scintillation proximity assay); type: biochemical; conditions: human 11-β-HSD1 expressed in Pichia pastoris; Ki calculated from IC50 by Cheng-Prusoff
T1 construct: made in house; host or cells: Pichia pastoris
Description: [1, 2(n)—^3H]-cortisone was purchased from Amersham Pharmacia Biotech. Anti-cortisol monoclonal mouse antibody, clone 6D6.7 was obtained from Immunotech and Scintillation proximity assay (SPA) beads coated with monoclonal antimouse antibodies were from Amersham Pharmacia Biotech. NADPH, tetrasodium salt was from Calbiochem and glucose-6-phosphate (G-6-P) was supplied by Sigma. The human 11-β-hydroxysteroid dehydrogenase type-I enzyme (11-β-HSD1) was expressed in Pichia pastoris. 18-β-glycyrrhetinic acid (GA) was obtained from Sigma. The serial dilutions of the compounds were performed on a Tecan Genesis RSP 150. Compounds to be tested were dissolved in DMSO (1 mM) and diluted in 50 mM Tris-HCl, pH 7.2 containing 1 mM EDTA.
The multiplication of plates was done on a WallacQuadra. The amount of the product [^3H]-cortisol, bound to the beads was determined in a Packard, Top Count microplate liquid scintillation counter.
The 11-β-HSD1 enzyme assay was carried out in 96 well microtiter plates (Packard, Optiplate) in a total well volume of 220 μL and contained 30 mM Tris-HCl, pH 7.2 with 1 mM EDTA, a substrate mixture tritiated Cortisone/NADPH (175 nM/181 μM), G-6-P (1 mM) and inhibitors in serial dilutions (9 to 0.15 μM). Reactions were initiated by the addition of human 11-β-HSD1, either as Pichia pastoris cell homogenate or microsomes prepared from Pichia pastoris (the final amount of enzyme used was varied between 0.057 to 0.11 mg/mL). Following mixing, the plates were shaken for 30 to 45 minutes at room temperature. The reactions were terminated with 10 μL 1 mM GA stop solution. Monoclonal mouse antibody was then added (10 μL of 4 μM) followed by 100 μL of SPA beads (suspended according to the manufacturers instructions). Appropriate controls were set up by omitting the 11-β-HSD1 to obtain the non-specific binding (NSB) value.
The plates were covered with plastic film and incubated on a shaker for 30 minutes, at room temperature, before counting. The amount of [^3H]-cortisol, bound to the beads was determined in a microplate liquid scintillation counter.
The calculation of the Ki values for the inhibitors was performed by use of Activity Base. The Ki value is calculated from IC50 and the Km value is calculated using the Cheng Prushoff equation (with reversible inhibition that follows the Michaelis-Menten equation): […] [Cheng, Y. C.; Prushoff, W. H. Biochem. Pharmacol. 1973, 22, 3099-3108]. The IC50 is measured experimentally in an assay wherein the decrease of the turnover of cortisone to cortisol is dependent on the inhibition potential of each substance. […] Illustrative of the invention, the following Ki values have been determined in the human 11-β-HSD1 enzyme assay (see Table 1): […]

bone nodule formation = conditions: cited from earlier work

T1 sequence (P28845 whole entry): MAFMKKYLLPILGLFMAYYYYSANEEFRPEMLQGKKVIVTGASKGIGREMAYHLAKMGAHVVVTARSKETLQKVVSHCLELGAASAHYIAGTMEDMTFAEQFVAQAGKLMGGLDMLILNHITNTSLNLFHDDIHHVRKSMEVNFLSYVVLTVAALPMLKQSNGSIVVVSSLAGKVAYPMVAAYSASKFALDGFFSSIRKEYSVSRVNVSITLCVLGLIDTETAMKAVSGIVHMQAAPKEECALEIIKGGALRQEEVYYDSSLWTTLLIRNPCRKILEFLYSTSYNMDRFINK

Compound | Ki (human 11-β-HSD1 enzyme) | melting point | negative glucocorticoid effect on bone nodule formation (bone nodule formation)
Cc1csc(NS(=O)(=O)c2cccc(Cl)c2C)n1 [Example 3, 3-Chloro-2-methyl-N-(4-methyl-1,3-thiazol-2-yl)benzenesulfonamide] | 122 nM | – | –
Cc1nc(NS(=O)(=O)c2c(Cl)cc(Cl)cc2Cl)sc1CC(Cl)(Cl)Cl [Example 6, 2,4,6-trichloro-N-[4-methyl-5-(2,2,2-trichloroethyl)-1,3-thiazol-2-yl]benzenesulfonamide] | 123 nM | 228 to 229 °C | –
CCCc1csc(NS(=O)(=O)c2cccc(Cl)c2C)n1 [Example 11, 3-Chloro-2-methyl-N-(4-propyl-1,3-thiazol-2-yl)benzenesulfonamide] | – | 169 °C | –
Cc1c(Cl)cccc1S(=O)(=O)Nc1nc(C(C)(C)C)cs1 [Example 15, N-(4-Tert-butyl-1,3-thiazol-2-yl)-3-chloro-2-methylbenzenesulfonamide] | – | 178 °C | –
CC1(C)[C@@H](OC(=O)CCC(=O)O)CC[C@]2(C)[C@H]3C(=O)C=C4[C@@H]5C[C@@](C)(C(=O)O)CC[C@]5(C)CC[C@@]4(C)[C@]3(C)CC[C@@H]12 [carbenoxolone] | – | – | blocked

Continued, in another order:

Ki (human 11-β-HSD1 enzyme) | melting point | Compound | negative glucocorticoid effect on bone nodule formation (bone nodule formation)
90 nM | – | C=Cc1csc(NS(=O)(=O)c2cccc(Cl)c2C)n1 [Example 18, 3-Chloro-2-methyl-N-(4-vinyl-1,3-thiazol-2-yl)benzenesulfonamide] | –
108 nM | – | CC(=O)c1sc(NS(=O)(=O)c2ccc(Oc3cccc(Cl)c3C#N)cc2)nc1C [Example 22, N-(5-acetyl-4-methyl-1,3-thiazol-2-yl)-4-(3-chloro-2-cyanophenoxy)benzenesulfonamide] | –
